Measured values published in US20250179103A1, “6-OXODECAHYDROPYRROLO[1,2-A][1,5]DIAZOCINE AND 6-OXODECAHYDRO-4H-PYRROLO[2,1-D][1,5]THIAZOCINE DERIVATIVES AS STAT3 AND STAT6 MODULATORS FOR THE TREATMENT OF CANCER AND INFLAMMATORY CONDITIONS” (Recludix Pharma, Inc., priority 2022, published 2025).

What was measured:
[1] = target: T1, Recombinant STAT3 protein (STAT3(G127-I722)) (Homo sapiens, UniProt P40763); assay: STAT3 Fluorescence Polarization (FP) Assay; format: binding; conditions: STAT3(G127-I722) 25 nM, probe 5-FAM-GpYLPQTV-NH2 2 nM, 45-minute incubation
T1 construct: Recombinant STAT3 protein (STAT3(G127-I722))
T1 sequence (P40763 127-722): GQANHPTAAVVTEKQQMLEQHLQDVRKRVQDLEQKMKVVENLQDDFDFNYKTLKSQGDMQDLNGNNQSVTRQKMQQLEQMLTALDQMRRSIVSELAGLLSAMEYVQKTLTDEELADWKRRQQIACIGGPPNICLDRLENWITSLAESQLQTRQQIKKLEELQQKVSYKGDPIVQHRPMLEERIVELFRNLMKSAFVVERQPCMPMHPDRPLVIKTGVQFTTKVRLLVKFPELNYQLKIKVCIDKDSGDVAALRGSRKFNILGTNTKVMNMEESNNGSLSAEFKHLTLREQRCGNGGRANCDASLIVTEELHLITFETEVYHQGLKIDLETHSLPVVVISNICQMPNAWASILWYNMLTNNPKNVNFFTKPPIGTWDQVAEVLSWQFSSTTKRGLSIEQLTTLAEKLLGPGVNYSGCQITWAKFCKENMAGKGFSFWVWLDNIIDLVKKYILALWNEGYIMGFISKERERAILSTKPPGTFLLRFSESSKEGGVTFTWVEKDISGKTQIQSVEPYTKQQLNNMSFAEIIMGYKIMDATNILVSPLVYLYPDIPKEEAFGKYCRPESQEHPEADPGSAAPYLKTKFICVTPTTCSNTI
Method in brief: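 Fluorescence polarization after a 45-min room-temperature incubation measured compound displacement of a 2 nM fluorescein-labelled phosphotyrosine peptide (5-FAM-GpYLPQTV-NH2) from 25 nM recombinant STAT3(G127-I722). Buffer was 10 mM HEPES pH 7.4 with 1% DMSO final. IC50s were fitted by nonlinear regression of mP against log concentration.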

[2] = target: T2, Recombinant STAT6 protein (STAT6(W123-T658)) (Homo sapiens, UniProt P42226); assay: STAT6 Fluorescence Polarization (FP) Assay; format: binding; conditions: STAT6(W123-T658) 250 nM, probe 5-FAM-ApYKPFQDLI-NH2 2 nM, 45-minute incubation
T2 construct: Recombinant STAT6 protein (STAT6(W123-T658))
T2 sequence (P42226 123-658): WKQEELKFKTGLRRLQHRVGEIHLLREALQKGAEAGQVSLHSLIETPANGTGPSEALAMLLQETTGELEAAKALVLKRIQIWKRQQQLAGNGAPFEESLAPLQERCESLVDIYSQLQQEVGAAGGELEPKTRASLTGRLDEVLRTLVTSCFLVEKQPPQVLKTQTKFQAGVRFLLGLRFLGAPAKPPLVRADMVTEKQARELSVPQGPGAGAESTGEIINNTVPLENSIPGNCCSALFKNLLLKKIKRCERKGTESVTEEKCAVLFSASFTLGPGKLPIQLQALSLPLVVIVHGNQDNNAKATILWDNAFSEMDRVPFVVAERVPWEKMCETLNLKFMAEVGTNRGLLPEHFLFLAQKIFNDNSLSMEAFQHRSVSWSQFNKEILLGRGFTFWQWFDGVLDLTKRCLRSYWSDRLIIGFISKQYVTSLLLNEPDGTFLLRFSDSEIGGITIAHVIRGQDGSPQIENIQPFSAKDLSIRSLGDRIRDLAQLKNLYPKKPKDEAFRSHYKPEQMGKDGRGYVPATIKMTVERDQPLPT
Method in brief: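 Displacement of a fluorescent phosphotyrosine peptide (5-FAM-ApYKPFQDLI-NH2, 2 nM) from STAT6(W123-T658) (250 nM), 1% DMSO, pH 7.4 HEPES buffer. After 45 min at room temperature, polarization (mP) was plotted versus log compound concentration and fitted by nonlinear regression to give IC50.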

SMILES | IC50 [1] [nM] | IC50 [2] [nM]
Cc1ccc2cc(C(=O)N3CC[C@H]4CC[C@@H](C(=O)N5CCOCC5)N4C(=O)[C@@H](NC(=O)c4ccc5ccc(C(F)P(=O)(O)O)cc5c4)C3)cc(Cl)c2n1 (stereo partly drawn) [Compound 366, ((7-(((5S,8S,10aR)-3-(8-chloro-2-methyl-quinoline-6-carbonyl)-8-(morpholine-4-carbonyl)-6-oxodecahydropyrrolo [1,2-a][1,5]diazocin-5-yl)carbamoyl)naphthalen-2-yl)fluoromethyl) phosphonic acid] | > 10000 | 300 to 3000
CC(=O)N1CC[C@H]2CC[C@@H](C(=O)N(C)c3ccc(-c4ccccc4)cc3)N2C(=O)[C@@H](NC(=O)c2cc3cc(C(F)(F)P(=O)(O)O)ccc3[nH]2)C1 [Compound 53, ((2-(((5S,8S,10aR)-8-([1,1′-biphenyl]-4-yl(methyl)carbamoyl)-3-acetyl-6-oxodecahydropyrrolo[1,2-a][1,5]diazocin-5-yl)carbamoyl)-1H-indol-5-yl)difluoromethyl)phosphonic acid] | 1000 to 10000 | 300 to 3000
CCC(=O)N(C)[C@@H]1CCN(C(=O)[C@@H]2CC[C@@H]3CCN(C(C)=O)C[C@H](NC(=O)c4cc5cc(C(F)(F)P(=O)(O)O)ccc5[nH]4)C(=O)N32)C1 [Compound 23, ((2-(((5S,8S,10aR)-3-acetyl-8-((R)-3-(N-methylpropionamido)pyrrolidine-1-carbonyl)-6-oxodecahydropyrrolo[1,2-a][1,5]diazocin-5-yl)carbamoyl)-1H-indol-5-yl)difluoromethyl)phosphonic acid] | 1000 to 10000 | 300 to 3000
CC(=O)N1CC[C@H]2CC[C@@H](C(=O)N3CC(c4ccccc4)C3)N2C(=O)[C@@H](NC(=O)c2cc3cc(C(F)(F)P(=O)(O)O)ccc3[nH]2)C1 [Compound 100, ((2-(((5S,8S,10aR)-3-acetyl-6-oxo-8-(3-phenylazetidine-1-carbonyl)decahydropyrrolo[1,2-a][1,5]diazocin-5-yl)carbamoyl)-1H-indol-5-yl)difluoromethyl)phosphonic acid] | 100 to 1000 | 300 to 3000
Cc1ccc2[nH]nc(C(=O)N3CC[C@H]4CC[C@@H](C(=O)N(C)C5CC5)N4C(=O)[C@@H](NC(=O)c4ccc5ccc(C(F)(F)P(=O)(O)O)cc5c4)C3)c2c1 [Compound 270, ((7-(((5S,8S,10aR)-8-(cyclopropyl(methyl)carbamoyl)-3-(5-methyl-1H-indazole-3-carbonyl)-6-oxodecahydropyrrolo[1,2-a][1,5]diazocin-5-yl)carbamoyl)naphthalen-2-yl)difluoromethyl)phosphonic acid] | 1000 to 10000 | ≤ 300
CC(=O)N1CC[C@H](NC(=O)c2cc3cc(C(F)(F)P(=O)(O)O)ccc3s2)C(=O)N2[C@H](CC[C@H]2C(=O)N2CC(c3cccnc3)C2)C1 [Compound 40, ((2-(((5S,8S,10aR)-2-acetyl-6-oxo-8-(3-(pyridin-3-yl)azetidine-1-carbonyl)decahydropyrrolo[1,2-a][1,4]diazocin-5-yl)carbamoyl)benzo[b]thiophen-5-yl)difluoromethyl)phosphonic acid] | ≤ 100 | 3000 to 30000
CCC(=O)NCCCN(C)C(=O)[C@@H]1CC[C@@H]2CCN(C(C)=O)C[C@H](NC(=O)c3cc4cc(C(F)(F)P(=O)(O)O)ccc4[nH]3)C(=O)N21 [Compound 28, ((2-(((5S,8S,10aR)-3-acetyl-8-(methyl(3-propionamidopropyl)carbamoyl)-6-oxodecahydropyrrolo[1,2-a][1,5]diazocin-5-yl)carbamoyl)-1H-indol-5-yl)difluoromethyl)phosphonic acid] | 1000 to 10000 | 300 to 3000
CC(=O)N1CC[C@H]2CC[C@@H](C(=O)N3CCC[C@H]3c3ccccc3)N2C(=O)[C@@H](NC(=O)c2cc3cc(C(F)(F)P(=O)(O)O)ccc3[nH]2)C1 [Compound 162, ((2-(((5S,8S,10aR)-3-acetyl-6-oxo-8-((S)-2-phenylpyrrolidine-1-carbonyl)decahydropyrrolo[1,2-a][1,5]diazocin-5-yl)carbamoyl)-1H-indol-5-yl)difluoromethyl)phosphonic acid] | 1000 to 10000 | 300 to 3000
CC(=O)N1CC[C@H]2CC[C@@H](C(=O)N(C)c3ccccc3)N2C(=O)[C@@H](NC(=O)c2cc3cc(C(C)P(=O)(O)O)ccc3s2)C1 (stereo partly drawn) [Compound 20, (1-(2-(((5S,8S,10aR)-3-acetyl-8-(methyl(phenyl)carbamoyl)-6-oxodecahydropyrrolo[1,2-a][1,5]diazocin-5-yl)carbamoyl)benzo[b]thiophen-5-yl)ethyl)phosphonic acid] | > 10000 | > 30000
CC(=O)N1CC[C@H]2CC[C@@H](C(=O)NC3COc4ccc(Cl)cc4C3)N2C(=O)[C@@H](NC(=O)c2cc3cc(C(F)(F)P(=O)(O)O)ccc3s2)C1 (stereo partly drawn) [Compound 127, ((2-(((5S,8S,10aR)-3-acetyl-8-((6-chlorochroman-3-yl)carbamoyl)-6-oxodecahydropyrrolo[1,2-a][1,5]diazocin-5-yl)carbamoyl)benzo[b]thiophen-5-yl)difluoromethyl)phosphonic acid] | 100 to 1000 | 300 to 3000
CC(=O)N1CC[C@H]2CC[C@@H](C(=O)N(C)Cc3ccccc3)N2C(=O)[C@@H](NC(=O)c2cc3cc(C(F)(F)P(=O)(O)O)ccc3[nH]2)C1 [Compound 54, ((2-(((5S,8S,10aR)-3-acetyl-8-(benzyl(methyl)carbamoyl)-6-oxodecahydropyrrolo[1,2-a][1,5]diazocin-5-yl)carbamoyl)-1H-indol-5-yl)difluoromethyl)phosphonic acid] | 1000 to 10000 | 300 to 3000
CCN1CC[C@H]2CC[C@@H](C(=O)N3CC(C(=O)N4CCOCC4)C3)N2C(=O)[C@@H](NC(=O)c2cc3cc(C(F)(F)P(=O)(O)O)ccc3s2)C1 [Compound 278, ((2-(((5S,8S,10aR)-3-ethyl-8-(3-(morpholine-4-carbonyl)azetidine-1-carbonyl)-6-oxodecahydropyrrolo[1,2-a][1,5]diazocin-5-yl)carbamoyl)benzo[b]thiophen-5-yl)difluoromethyl)phosphonic acid] | 100 to 1000 | 3000 to 30000
N#C[C@H]1CN(C(=O)[C@@H]2CC[C@@H]3CCN(CC(F)F)C[C@H](NC(=O)c4ccc5ccc(C(F)(F)P(=O)(O)O)cc5c4)C(=O)N32)CC[C@@H]1c1ccccc1 (relative stereo) [Compound 241, ((7-(((5S,8S,10aR)-8-((rel-trans)-3-cyano-4-phenylpiperidine-1-carbonyl)-3-(2,2-difluoroethyl)-6-oxodecahydropyrrolo[1,2-a][1,5]diazocin-5-yl)carbamoyl)naphthalen-2-yl)difluoromethyl)phosphonic acid] | 1000 to 10000 | 300 to 3000
CC(=O)N1CC[C@H]2CC[C@@H](C(=O)N(C)CCC#N)N2C(=O)[C@@H](NC(=O)c2cc3cc(C(F)(F)P(=O)(O)O)ccc3s2)C1 [Compound 90, ((2-(((5S,8S,10aR)-3-acetyl-8-((2-cyanoethyl)(methyl)carbamoyl)-6-oxodecahydropyrrolo[1,2-a][1,5]diazocin-5-yl)carbamoyl)benzo[b]thiophen-5-yl)difluoromethyl)phosphonic acid] | 1000 to 10000 | 300 to 3000
CC(=O)N1CC[C@H]2CC[C@@H](C(=O)N(C)c3ccccc3)N2C(=O)[C@@H](NC(=O)c2cc3cc(C(F)(F)P(=O)(O)O)ccc3s2)C1 [Compound 109, ((2-(((5S,8S,10aR)-3-acetyl-8-(methyl(phenyl)carbamoyl)-6-oxodecahydropyrrolo[1,2-a][1,5]diazocin-5-yl)carbamoyl)benzo[b]thiophen-5-yl)difluoromethyl)phosphonic acid] | 1000 to 10000 | 300 to 3000
CC(=O)N1CC[C@H]2CC[C@@H](C(=O)N3CCC[C@H]3Cc3ccccc3)N2C(=O)[C@@H](NC(=O)c2ccc3ccc(C(F)(F)P(=O)(O)O)cc3c2)C1 [Compound 200, ((7-(((5S,8S,10aR)-3-acetyl-8-((S)-2-benzylpyrrolidine-1-carbonyl)-6-oxodecahydropyrrolo[1,2-a][1,5]diazocin-5-yl)carbamoyl)naphthalen-2-yl)difluoromethyl)phosphonic acid] | 1000 to 10000 | 300 to 3000
CC(=O)N1CC[C@H]2CC[C@@H](C(=O)Nc3ccc4ccccc4c3)N2C(=O)[C@@H](NC(=O)c2cc3cc(C(F)(F)P(=O)(O)O)ccc3s2)C1 [Compound 173, ((2-(((5S,8S,10aR)-3-acetyl-8-(naphthalen-2-ylcarbamoyl)-6-oxodecahydropyrrolo[1,2-a][1,5]diazocin-5-yl)carbamoyl)benzo[b]thiophen-5-yl)difluoromethyl)phosphonic acid] | 100 to 1000 | 300 to 3000
